According to patent publication US20220110919A1, “METHODS OF MODULATING LEUKOCYTES ACTIVATION AND THROMBOCYTE CLEARANCE WITH INHIBITORS OF SPECIFIC NEURAMINIDASE ISOENZYMES” (The Governors of the University of Alberta, priority 2018, published 2022):

Tested on: reticulated platelets
Test: Passive Antibody Transfer Model of ITP (immunothrombocytopenia)
Type: in vivo
Settings: C57Bl/6NCrI mice, anti-CD41 antibody; daily intraperitoneal 30 μg/kg vs saline
Source text: The Passive Antibody Transfer Model of ITP has been extensively used to understand the progression of chronic ITP and to rapidly evaluate the efficacy of various therapeutics (Neschadim et al., 2015). The model is characterized by a rapid onset of the ITP and clear involvement of phagocytic monocytes in platelet destruction. In addition, it provides a possibility to use self-antigens relevant to the human condition. Depending on the type, quantity, and frequency of the administered antibody it is possible to vary the severity and the persistence of the induced ITP by fine-tuning the rate and the level of platelet decline whereas the repeated administration of the monoclonal antibody simulates chronic human IT.
Female 6-week old C57Bl/6NCrI mice and genetically-modified C57Bl/6NCrI mice with neu1 deficiency (Passive Antibody Transfer Model of ITP, Neschadim et al., 2015) received escalating daily doses (68 μg/kg on the 1st and 2d days, 102 μg/kg on the third day) of anti-CD41 anti-platelet monoclonal mouse antibody (clone MWReg30) by intraperitoneal injection. The reticulated platelets were measured daily for three days by flow cytometric analysis. Control mice (C57B16) received injections of saline. […]

## CCCCC(=O)NCC(O)C(O)C1OC(C(=O)O)=CC(O)[C@H]1NC(C)=O (stereo partly drawn) [compound 50, 5-Acetamido-9-pentanamido-2,6-anhydro-3,5-dideoxy-D-glycero-D-galacto-non-2-enonic acid]
  platelet reduction rate: lower platelet reduction rates
